Peptide text beside a SMILES is read from it. * marks the point of attachment. Cbz = O=C(OCc1ccccc1)*; CH2F = FC*
Key:
Panx1 = biological target: T1, Panx1 (Homo sapiens, UniProt Q96RD7); test: Panx1-dependent metabolite release from apoptotic Jurkat T cells with Panx1 inhibitors; assay type: cell-based; conditions: UV-induced apoptosis; spironolactone 50 µM, trovafloxacin 25 µM
T1 construct: host or cells: Jurkat E6.1 T cells (wild type), apoptotic
Method: Apoptosis induction. Wild type Jurkat E6.1 (ATCC) or dominant negative Pannexinl-expressing (Panxl-DN)^10 cells were resuspended in RPMI-1640 containing 1% BSA, 1% PSQ, and 10 mM HEPES and treated with 250 ng ml^-1 anti-Fas (clone CH11), 10 µM ABT-737, or exposed to 150 mJ cm^-2 ultraviolet C irradiation for 1-2 min (Stratalinker). Jurkat cells were incubated for 4 hours after apoptosis induction. For apoptosis induction in the presence of Panx1 inhibitors, Jurkat cells were treated with spironolactone (50 µM) or trovafloxacin (25 µM) in RPMI containing 1% BSA and 1% PSQ.
For untargeted metabolomics analysis through Metabolon, recovery standards were added to samples in order to monitor QC of the analysis. Samples were methanol precipitated under shaking for 2 minutes. […] Samples were analyzed under 4 different conditions; two for analysis by two separate reverse phase (RP)/UPLC-MS/MS methods with positive ion mode ESI, one for analysis by RP/UPLC-MS/MS with negative ion mode ESI, and one for analysis by HILIC/UPLC-MS/MS with negative ion mode ESI. […]
During the above analyses of EXAMPLE 1, it was noted that despite the many cellular metabolites detected in the pellet, only a subset is released; further, even within a known metabolic pathway, only some but not others were released. […]

arthritis = conditions: FBP alone, reference 26; cited from earlier work
[1] = exogenous supplementation, reference 13; cited from earlier work
[2] = tested on: Jurkat cells, A549 lung epithelial cells, and HCT116 colonic epithelial cells; test: Apoptosis-dependent release of conserved metabolites (analytical kits) with or without caspase inhibition; assay type: cell-based, human; conditions: 50 uM zVAD pre-treatment for 10 min; UV, ABT-737, TRAIL
Method: A549 cells were treated with 10 µM ABT-737 or exposed 600mJ cm^-2 and incubated for twenty-four hours. HCT-116 cells were treated with 10 µM ABT-737 or 100 ng ml^-1 TRAIL and incubated for 24 hours. All cells were pre-treated for 10 min with 50 uM zVAD prior to apoptosis induction in indicated experiments. All cells were incubated at 37° C. with 5% CO2 for indicated times.
Metabolite detection. Spermidine detection was measured using a colorimetric kit (Cloud-Clone Corp.) via manufacturers’ protocol. Briefly, supernatants taken from cells under specified conditions were centrifuged at 1000 x g for twenty minutes. All reagents were brought to room temperature prior to use. […] 90 µl of substrate solution was added to each well and incubated for 10 minutes at 37° C. after which 50 µl of stop solution was added, the plate was mixed and immediately measure at 450 nm on a plate reader (Flex station 3). […]
ATP was measure using a luciferase-based kit (Promega) via manufactures’ protocol. […] Luminescence was immediately measure on the Flex Station 3. […]
Glycerol-3-phosphate and creatine were measured based on manufacturers’ protocols (Abcam). […] OD at 450 nm or fluorescence at Ex/Em 535/587 was measured for glycerol-3-phosphate and creatine, respectively.
To test other cell types and additional apoptotic modalities, we analyzed the release of four ‘conserved metabolites’ via analytical kits. […]

T1 sequence (Q96RD7 1-379 limits assumed): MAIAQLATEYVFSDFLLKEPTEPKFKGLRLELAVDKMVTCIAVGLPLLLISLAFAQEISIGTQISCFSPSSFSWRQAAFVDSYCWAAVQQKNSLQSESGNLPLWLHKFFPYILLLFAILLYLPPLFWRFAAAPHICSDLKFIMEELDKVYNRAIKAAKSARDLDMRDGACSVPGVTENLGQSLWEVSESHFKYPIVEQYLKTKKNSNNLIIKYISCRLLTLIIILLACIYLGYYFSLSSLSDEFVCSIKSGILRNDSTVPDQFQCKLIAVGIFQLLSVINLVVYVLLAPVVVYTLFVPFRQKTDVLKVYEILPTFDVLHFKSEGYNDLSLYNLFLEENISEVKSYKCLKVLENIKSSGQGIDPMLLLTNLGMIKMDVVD

SMILES: CC(=O)S[C@@H]1CC2=CC(=O)CC[C@]2(C)[C@H]2CC[C@@]3(C)[C@@H](CC[C@@]34CCC(=O)O4)[C@H]12 [Spiro, spironolactone]
- Apoptotic metabolites in Jurkat T cell supernatants when Panx1 was inhibited (Panx1): reduced

SMILES: N[C@@H]1[C@H]2CN(c3nc4c(cc3F)c(=O)c(C(=O)O)cn4-c3ccc(F)cc3F)C[C@@H]12 [Trovan, trovafloxacin]
- Apoptotic metabolites in Jurkat T cell supernatants when Panx1 was inhibited (Panx1): reduced

SMILES: O=C(COP(=O)(O)O)[C@@H](O)[C@H](O)[C@H](O)COP(=O)(O)O [fructose 1,6-bisphosphate (FBP), fructose 1,6-bisphosphate]
- Role in arthritis (arthritis): can have ameliorative roles in arthritis

SMILES: NCCCCNCCCN [spermidine]
- Effect on inflammation and longevity [1]: can reduce inflammation and improve longevity

SMILES: COC(=O)C[C@H](NC(=O)[C@H](C)NC(=O)[C@@H](NC(=O)OCc1ccccc1)C(C)C)C(=O)CF [zVAD, zVAD-FMK] (Cbz-Val-Ala-Asp(OMe)-CH2F)
- Apoptosis-dependent release of the tested metabolites with caspase inhibition [2]: attenuation

— patent publication US20230172877A1, “METABOLITES RELEASED FROM APOPTOTIC CELLS ACT AS NOVEL TISSUE MESSENGERS” (University of Virginia Patent Foundation, priority 2020, published 2023)
